Test results reported in US11492335B2, “Aryl or heteroaryl triazolone derivatives or salts thereof, or pharmaceutical compositions comprising the same” (YUHAN CORPORATION, priority 2018, dated 2022).
Counter-ions that a name gives are not always drawn.

Experiments:
Assay type in all cases: biochemical
[1] = target: T1, recombinant human DAO (diamine oxidase) (Homo sapiens, UniProt P19801); experiment: Activity on recombinant human DAO, Amplex Red method, 1 mM putrescine substrate; conditions: recombinant human DAO, 1 mM putrescine; * = between 10 and 100 nM, ** = between 300 and 1000 nM; read-out: Inhibitory Activity (IC50, nM) DAO
T1 construct: purchased R&D systems
T1 sequence (P19801 20-751): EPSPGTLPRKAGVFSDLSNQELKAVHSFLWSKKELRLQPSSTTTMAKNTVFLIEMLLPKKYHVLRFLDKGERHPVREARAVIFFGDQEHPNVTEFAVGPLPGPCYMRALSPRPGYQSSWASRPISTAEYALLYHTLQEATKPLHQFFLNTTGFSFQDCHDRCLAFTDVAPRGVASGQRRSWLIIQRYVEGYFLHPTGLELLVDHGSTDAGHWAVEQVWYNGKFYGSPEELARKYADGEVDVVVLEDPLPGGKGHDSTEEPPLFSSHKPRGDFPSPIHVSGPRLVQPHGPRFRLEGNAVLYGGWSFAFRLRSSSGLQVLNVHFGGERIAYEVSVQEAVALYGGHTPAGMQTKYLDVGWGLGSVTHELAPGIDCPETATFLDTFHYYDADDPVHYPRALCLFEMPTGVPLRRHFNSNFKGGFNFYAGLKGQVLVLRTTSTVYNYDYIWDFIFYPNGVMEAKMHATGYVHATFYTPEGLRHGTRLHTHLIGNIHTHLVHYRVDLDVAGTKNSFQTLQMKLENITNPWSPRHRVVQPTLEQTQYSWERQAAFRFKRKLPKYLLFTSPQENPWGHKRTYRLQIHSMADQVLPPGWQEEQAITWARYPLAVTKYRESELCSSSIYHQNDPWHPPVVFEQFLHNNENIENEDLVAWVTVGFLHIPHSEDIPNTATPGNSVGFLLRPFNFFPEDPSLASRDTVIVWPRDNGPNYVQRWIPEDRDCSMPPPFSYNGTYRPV
In short: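 Inhibition of recombinant human DAO (diamine oxidase, R&D systems) was assessed with the Amplex Red Hydrogen Peroxide Assay Kit. Hydrogen peroxide produced from 1 mM putrescine was detected through an HRP-coupled reaction that converts Amplex Red into fluorescent resorufin, read at 544 nm excitation and 590 nm emission. IC50 values came from four-parameter logistic fits in GraphPad Prism.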

recombinant human VAP-1 = target: T2, recombinant human VAP-1 (Homo sapiens, UniProt Q16853); experiment: Activity on recombinant human VAP-1, Amplex Red HRP-coupled hydrogen peroxide assay, benzylamine substrate; conditions: recombinant human VAP-1, benzylamine substrate, 30 min preincubation at 37° C.; read-out: Inhibitory Activity (IC50, nM) human VAP-1
T2 construct: purchased R&D systems
T2 sequence (Q16853 1-763): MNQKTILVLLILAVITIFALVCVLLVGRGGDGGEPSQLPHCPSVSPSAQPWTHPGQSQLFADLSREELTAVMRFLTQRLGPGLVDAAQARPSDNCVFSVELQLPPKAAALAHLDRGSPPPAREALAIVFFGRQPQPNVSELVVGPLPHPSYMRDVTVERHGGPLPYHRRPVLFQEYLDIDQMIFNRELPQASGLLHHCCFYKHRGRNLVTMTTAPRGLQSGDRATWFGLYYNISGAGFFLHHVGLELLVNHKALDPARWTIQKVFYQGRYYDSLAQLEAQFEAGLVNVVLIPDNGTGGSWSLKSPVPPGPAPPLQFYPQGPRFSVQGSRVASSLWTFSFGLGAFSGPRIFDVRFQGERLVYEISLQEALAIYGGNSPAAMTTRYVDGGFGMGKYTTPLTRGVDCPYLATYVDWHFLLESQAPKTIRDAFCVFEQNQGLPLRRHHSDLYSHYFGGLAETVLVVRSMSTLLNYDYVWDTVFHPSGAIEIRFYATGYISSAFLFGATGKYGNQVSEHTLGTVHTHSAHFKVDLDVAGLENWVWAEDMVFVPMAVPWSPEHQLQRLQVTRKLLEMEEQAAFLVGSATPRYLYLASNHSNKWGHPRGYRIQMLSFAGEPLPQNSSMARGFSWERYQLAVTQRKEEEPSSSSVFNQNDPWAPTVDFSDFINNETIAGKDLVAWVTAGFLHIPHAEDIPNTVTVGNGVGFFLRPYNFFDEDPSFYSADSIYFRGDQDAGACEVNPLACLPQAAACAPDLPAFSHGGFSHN
In short: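 Compounds were preincubated with purified enzyme in 50 mM sodium phosphate pH 7.4 at 37 °C for 30 min, then 200 uM Amplex Red, 1 mM benzylamine and 1 U/mL HRP were added. Resorufin fluorescence (ex 544/em 590 nm) was followed over 1-2 h; IC50 came from 4-parameter fits of signal-rate inhibition.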

[2] = target: T3, recombinant human MAO-A (monoamine oxidase-A) (Homo sapiens, UniProt P21397); experiment: Activity on recombinant human MAO-A, Amplex Red method, 0.5 mM tyramine substrate; conditions: 0.5 mM tyramine, read-out: Inhibitory Activity (IC50, nM) MAO-A
T3 construct: purchased Sigma-Aldrich
T3 sequence (P21397 1-527): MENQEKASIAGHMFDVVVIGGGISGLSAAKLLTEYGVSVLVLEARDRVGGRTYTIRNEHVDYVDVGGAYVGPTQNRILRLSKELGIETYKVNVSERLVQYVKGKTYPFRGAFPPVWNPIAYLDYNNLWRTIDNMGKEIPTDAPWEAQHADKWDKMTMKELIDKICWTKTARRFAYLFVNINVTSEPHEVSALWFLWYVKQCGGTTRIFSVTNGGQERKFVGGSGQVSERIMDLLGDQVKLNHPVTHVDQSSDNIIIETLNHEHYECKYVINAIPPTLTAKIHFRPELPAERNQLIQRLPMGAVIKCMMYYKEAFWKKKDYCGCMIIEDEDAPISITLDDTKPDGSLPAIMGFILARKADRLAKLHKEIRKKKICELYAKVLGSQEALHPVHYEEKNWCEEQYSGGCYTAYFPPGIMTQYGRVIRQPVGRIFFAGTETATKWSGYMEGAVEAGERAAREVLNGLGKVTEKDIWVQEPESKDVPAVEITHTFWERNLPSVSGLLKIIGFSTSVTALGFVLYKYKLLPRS
In short: (§1)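 8-point, 1:3 dose-response, four-parameter logistic IC50 from reduction in fluorescence rate versus DMSO control. HRP/Amplex Red detection of H2O2 (ex 544, em 590 nm) after 30 min, 37 °C compound–enzyme preincubation in pH 7.4 phosphate buffer. MAO-A substrate: 0.5 mM tyramine; MAO-B: 1 mM benzylamine.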

[3] = target: T4, recombinant human MAO-B (monoamine oxidase-B) (Homo sapiens, UniProt P27338); experiment: Activity on recombinant human MAO-B, Amplex Red method, 1 mM benzylamine substrate; conditions: 1 mM benzylamine, read-out: Inhibitory Activity (IC50, nM) MAO-B
T4 construct: purchased Sigma-Aldrich
T4 sequence (P27338 1-520): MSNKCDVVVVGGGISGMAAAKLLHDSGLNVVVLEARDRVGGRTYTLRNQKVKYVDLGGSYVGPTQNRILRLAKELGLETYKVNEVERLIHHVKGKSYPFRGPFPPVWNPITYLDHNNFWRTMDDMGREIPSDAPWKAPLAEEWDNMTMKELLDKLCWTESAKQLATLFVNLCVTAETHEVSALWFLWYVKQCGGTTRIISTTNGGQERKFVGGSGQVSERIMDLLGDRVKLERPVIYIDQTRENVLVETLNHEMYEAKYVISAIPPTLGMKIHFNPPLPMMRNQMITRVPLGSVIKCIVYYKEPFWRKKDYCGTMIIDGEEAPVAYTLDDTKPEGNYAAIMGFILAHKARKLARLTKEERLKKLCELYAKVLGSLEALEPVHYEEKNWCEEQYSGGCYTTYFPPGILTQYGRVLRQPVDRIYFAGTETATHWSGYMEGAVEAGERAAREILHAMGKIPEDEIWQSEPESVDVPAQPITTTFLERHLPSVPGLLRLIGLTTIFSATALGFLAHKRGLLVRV
In short: as §1

Row | Structure (SMILES) | IC50 [1] | IC50 (recombinant human VAP-1) | IC50 [2] | IC50 [3]
1 | CC(=O)Nc1ccc(-c2cnc(-n3cnn(C/C(=C/F)CN)c3=O)c(C)c2)cc1 [Example 134, N-[4-(6-{1-[(2E)-2-(aminomethyl)-3-fluoroprop-2-en-1-yl]-5-oxo-1,5-dihydro-4H-1,2,4-triazol-4-yl}-5-methylpyridin-3-yl)phenyl]acetamide hydrochloride] | 1200 nM | 0.55 nM | > 100000 nM | > 10000 nM
2 | Cc1cc(-c2cccc(-c3nnc[nH]3)c2)cnc1-n1cnn(C/C(=C/F)CN)c1=O [Example 137, 2-[(2E)-2-(aminomethyl)-3-fluoroprop-2-en-1-yl]-4-{3-methyl-5-[3-(4H-1,2,4-triazol-3-yl)phenyl]pyridin-2-yl}-2,4-dihydro-3H-1,2,4-triazol-3-one] | 120 nM | 0.5 nM | 34000 nM | 3790 nM
3 | Cc1cc(-c2ccc(-c3cnon3)cc2)cnc1-n1cnn(C/C(=C/F)CN)c1=O [Example 138, 2-[(2E)-2-(aminomethyl)-3-fluoroprop-2-en-1-yl]-4-{3-methyl-5-[4-(1,2,5-oxadiazol-3-yl)phenyl]pyridin-2-yl}-2,4-dihydro-3H-1,2,4-triazol-3-one hydrochloride] | 240 nM | 0.7 nM | 84000 nM | 1100 nM
4 | Cc1cc(-c2ccc(-c3ncon3)cc2)cnc1-n1cnn(C/C(=C/F)CN)c1=O [Example 139, 2-[(2E)-2-(aminomethyl)-3-fluoroprop-2-en-1-yl]-4-{3-methyl-5-[4-(1,2,4-oxadiazol-3-yl)phenyl]pyridin-2-yl}-2,4-dihydro-3H-1,2,4-triazol-3-one] | 370 nM | 0.53 nM | > 100000 nM | 394 nM
5 | Cc1cc(-c2cccc(-c3ncon3)c2)cnc1-n1cnn(C/C(=C/F)CN)c1=O [Example 140, 2-[(2E)-2-(aminomethyl)-3-fluoroprop-2-en-1-yl]-4-{3-methyl-5-[3-(1,2,4-oxadiazol-3-yl)phenyl]pyridin-2-yl}-2,4-dihydro-3H-1,2,4-triazol-3-one] | 13000 nM | 0.79 nM | 3400 nM | 3100 nM

The remaining lines, values ahead:

Row | IC50 [1] | IC50 (recombinant human VAP-1) | IC50 [2] | IC50 [3] | Structure (SMILES)
6 | 110 nM | 0.88 nM | > 100000 nM | 7090 nM | Cc1cc(-c2ccc(-c3noc(C4CC4)n3)cc2)cnc1-n1cnn(C/C(=C/F)CN)c1=O [Example 141, 2-[(2E)-2-(aminomethyl)-3-fluoroprop-2-en-1-yl]-4-{5-[4-(5-cyclopropyl-1,2,4-oxadiazol-3-yl)phenyl]-3-methylpyridin-2-yl}-2,4-dihydro-3H-1,2,4-triazol-3-one hydrochloride]
7 | 57 nM | 0.63 nM | > 100000 nM | 4720 nM | Cc1cc(-c2ccc(-c3noc(C(C)C)n3)cc2)cnc1-n1cnn(C/C(=C/F)CN)c1=O [Example 142, 2-[(2E)-2-(aminomethyl)-3-fluoroprop-2-en-1-yl]-4-(3-methyl-5-{4-[5-(propan-2-yl)-1,2,4-oxadiazol-3-yl]phenyl}pyridin-2-yl)-2,4-dihydro-3H-1,2,4-triazol-3-one hydrochloride]
8 | 12 nM | 0.43 nM | 112000 nM | 5340 nM | Cc1cc(-c2cccc(-c3noc(C(C)C)n3)c2)cnc1-n1cnn(C/C(=C/F)CN)c1=O [Example 143, 2-[(2E)-2-(aminomethyl)-3-fluoroprop-2-en-1-yl]-4-(3-methyl-5-{3-[5-(propan-2-yl)-1,2,4-oxadiazol-3-yl]phenyl}pyridin-2-yl)-2,4-dihydro-3H-1,2,4-triazol-3-one hydrochloride]
9 | 13000 nM | 0.9 nM | > 100000 nM | > 10000 nM | Cc1cc(-c2ccc(N3CCNCC3)cc2)cnc1-n1cnn(C/C(=C/F)CN)c1=O [Example 145, 2-[(2E)-2-(aminomethyl)-3-fluoroprop-2-en-1-yl]-4-{3-methyl-5-[4-(piperazin-1-yl)phenyl]pyridin-2-yl}-2,4-dihydro-3H-1,2,4-triazol-3-one hydrochloride]
10 | 17000 nM | 0.7 nM | > 100000 nM | > 10000 nM | Cc1cc(-c2ccc(C(=O)N3CCOCC3)cc2)cnc1-n1cnn(C/C(=C/F)CN)c1=O [Example 146, 2-[(2E)-2-(aminomethyl)-3-fluoroprop-2-en-1-yl]-4-{3-methyl-5-[4-(morpholin-4-ylcarbonyl)phenyl]pyridin-2-yl}-2,4-dihydro-3H-1,2,4-triazol-3-one hydrochloride]
11 | 450 nM | 0.55 nM | > 10000 nM | > 10000 nM | CC(=O)Nc1cc(-c2cnc(-n3cnn(C/C(=C/F)CN)c3=O)c(C)c2)ccn1 [Example 147, (E)-N-(6-(1-(2-(aminomethyl)-3-fluoroallyl)-5-oxo-1,5-dihydro-4H-1,2,4-triazol-4-yl)-5-methyl-[3,4′-bipyridin]-2′-yl)acetamide hydrochloride]
